This note sets out measurements from patent US12247011B2, “Selective inhibitors of NLRP3 inflammasome” (NodThera Limited, priority 2017, dated 2025).

What is called IC50 is the concentration that gives 50% inhibition.

Counter-ions that a name gives are not always drawn.

One experiment deals with IL-1β release upon NLRP3 activation in peripheral blood mononuclear cells (PBMC). Description: PBMC IC50 Determination Assay. The class given is cell-based. The note with it: Homo sapiens, PBMC, read-out: PBMC IC50.
Regarding `CN(C)Cc1cnn(C[C@@H](OC(=O)Nc2c3c(cc4c2CCC4)CCC3)C(=O)O)c1` [Compound 98, (2R)-3-{4-[(dimethylamino)methyl]-1H-pyrazol-1-yl}-2-{[(1,2,3,5,6,7-hexahydro-s-indacen-4-yl)carbamoyl]oxy}propanoic acid hydrochloride], the IC50 lay within 1000 to 10000 nM.

The same experiment, now with this note: Homo sapiens; LPS-primed PBMC, 30 min compound, stimulated with ATP (5 mM) or nigericin (10 μM) for 1 h; IL-1β ELISA; read-out: PBMC IC50.
With `CCOC(=O)COC(=O)Nc1c(C)cccc1CC` [Compound 16, Ethyl 2-(((2-ethyl-6-methylphenyl)carbamoyl)oxy)acetate], the IC50 was 100 to 1000 nM.
Same read-out and setting: for `CCOC(=O)C(Cn1cccn1)OC(=O)Nc1c(C)cccc1C(C)C` (stereo not drawn) [Compound 74, Ethyl 2-({[2-methyl-6-(propan-2-yl)phenyl]carbamoyl}oxy)-3-(1H-pyrazol-1-yl)propanoate] the value was 100 to 1000 nM; for `CC(C)OC(=O)COC(=O)Nc1c2c(cc3c1CCC3)CCC2` [Compound 20, Propan-2-yl 2-{[(1,2,3,5,6,7-hexahydro-s-indacen-4-yl)carbamoyl]oxy}acetate], 100 to 1000 nM.
Same read-out and setting: for `CCOC(=O)C(Cn1cccn1)OC(=O)Nc1c(C)cccc1C#N` (stereo not drawn) [Compound 57, Ethyl 2-{[(2-cyano-6-methylphenyl)carbamoyl]oxy}-3-(1H-pyrazol-1-yl)propanoate] the value was above 10000 nM; for `O=C(Nc1c2c(cc3c1CCC3)CCC2)O[C@H](Cc1cnccn1)C(=O)O` [Compound 109, (2R)-2-{[(1,2,3,5,6,7-hexahydro-s-indacen-4-yl)carbamoyl]oxy}-3-(pyrazin-2-yl)propanoic acid], 100 to 1000 nM; for `CC(C)OC(=O)C(Cc1ncccn1)OC(=O)Nc1c(F)cccc1F` (stereo not drawn) [Compound 124, Propan-2-yl 2-{[(2,6-difluorophenyl)carbamoyl]oxy}-3-(pyrimidin-2-yl)propanoate], 100 to 1000 nM.
Same read-out and setting: next, `CCOC(=O)[C@@H](Cn1cc(C(F)(F)F)cn1)OC(=O)Nc1c2c(cc3c1CCC3)CCC2` [Compound 97, Ethyl (2R)-2-{[(1,2,3,5,6,7-hexahydro-s-indacen-4-yl)carbamoyl]oxy}-3-[4-(trifluoromethyl)-1H-pyrazol-1-yl]propanoate]: 100 to 1000 nM.
`COCC(OC(=O)Nc1c2c(cc3c1CCC3)CCC2)C(=O)O` (stereo not drawn) [Compound 38, 2-{[(1,2,3,5,6,7-hexahydro-s-indacen-4-yl)carbamoyl]oxy}-3-methoxypropanoic acid]: the IC50 is 1000 to 10000 nM.
As for `CCOC(=O)[C@@H](Cc1cccc(C#N)c1)OC(=O)Nc1c2c(cc3c1CCC3)CCC2` [Compound 41, Ethyl (2R)-3-(3-cyanophenyl)-2-{[(1,2,3,5,6,7-hexahydro-s-indacen-4-yl)carbamoyl]oxy}propanoate], the IC50 lay in the range of 10 to 100 nM.
Same read-out and setting: for `CCOC(=O)COC(=O)Nc1cc(C)ccc1C` [Compound 37, Ethyl 2-{[(2,5-dimethylphenyl)carbamoyl]oxy}acetate] the value was 100 to 1000 nM.
On the same count and under the same terms, for `CCOC(=O)C(Cn1cncc1C)OC(=O)Nc1c2c(cc3c1CCC3)CCC2` (stereo not drawn) [Compound 81, Ethyl 2-{[(1,2,3,5,6,7-hexahydro-s-indacen-4-yl)carbamoyl]oxy}-3-(5-methyl-1H-imidazol-1-yl)propanoate] the value was 1000 to 10000 nM.
On to `CCOC(=O)C(Cn1cccn1)OC(=O)NC1CCCC1` (stereo not drawn) [Compound 54, Ethyl 2-[(cyclopentylcarbamoyl)oxy]-3-(1H-pyrazol-1-yl)propanoate], for which the IC50 lay within 1000 to 10000 nM.
As to `CCOC(=O)COC(=O)Nc1c(F)cccc1F` [Compound 2, Ethyl 2-{[(2,6-difluorophenyl)carbamoyl]oxy}acetate], the IC50 fell in the range of 1000 to 10000 nM.
Still for that read-out and setting: for `CCOC(=O)COC(=O)Nc1c(C)cc(C)cc1C` [Compound 14, Ethyl 2-((mesitylcarbamoyl)oxy)acetate] the value was 1000 to 10000 nM; for `CCOC(=O)COC(=O)Nc1cccc2c1OC(C)(C)C2` [Compound 5, Ethyl 2-{[(2,2-dimethyl-2,3-dihydro-1-benzofuran-7-yl)carbamoyl]oxy}acetate], above 10000 nM; for `CCOC(=O)C(Cn1cccn1)OC(=O)Nc1c(F)cccc1CC` (stereo not drawn) [Compound 66, Ethyl 2-{[(2-ethyl-6-fluorophenyl)carbamoyl]oxy}-3-(1H-pyrazol-1-yl)propanoate], 100 to 1000 nM.
On the same count and under the same terms, next, `CCOC(=O)[C@@H](Cn1ccnc1)OC(=O)Nc1c2c(cc3c1CCC3)CCC2` [Compound 67, Ethyl (2R)-2-{[(1,2,3,5,6,7-hexahydro-s-indacen-4-yl)carbamoyl]oxy}-3-(1H-imidazol-1-yl)propanoate]: 100 to 1000 nM; `CC(C)OC(=O)C(Cc1ncccn1)OC(=O)Nc1c(Cl)cccc1Cl` (stereo not drawn) [Compound 125, Propan-2-yl 2-{[(2,6-dichlorophenyl)carbamoyl]oxy}-3-(pyrimidin-2-yl)propanoate]: 1000 to 10000 nM.
In the case of `CCOC(=O)[C@@H](COCCOC)OC(=O)Nc1c2c(cc3c1CCC3)CCC2` [Compound 101, Ethyl (2R)-2-{[(1,2,3,5,6,7-hexahydro-indacen-4-yl)carbamoyl]oxy}-3-(2-methoxyethoxy)propanoate], the IC50 was in the range of 100 to 1000 nM.
For the compound `CCOC(=O)C(Cn1cccn1)OC(=O)Nc1c(Cl)cccc1C#N` (stereo not drawn) [Compound 59, Ethyl 2-{[(2-chloro-6-cyanophenyl)carbamoyl]oxy}-3-(1H-pyrazol-1-yl)propanoate], the 50% inhibitory concentration (IC50) was above 10000 nM.
Still for that read-out and setting: next, `CCOC(=O)C(Cn1cccn1)OC(=O)Nc1c(Cl)cccc1Cl` (stereo not drawn) [Compound 52, Ethyl 2-{[(2,6-dichlorophenyl)carbamoyl]oxy}-3-(1H-pyrazol-1-yl)propanoate]: 1000 to 10000 nM; `CCOC(=O)C(Cn1cccn1)OC(=O)NC1CCCCCC1` (stereo not drawn) [Compound 56, Ethyl 2-[(cycloheptylcarbamoyl)oxy]-3-(1H-pyrazol-1-yl)propanoate]: above 10000 nM; `O=C(Nc1c2c(cc3c1CCC3)CCC2)O[C@H](Cc1cnccn1)C(=O)OC1CCCC1` [Compound 111, Cyclopentyl (2R)-2-{[(1,2,3,5,6,7-hexahydro-s-indacen-4-yl)carbamoyl]oxy}-3-(pyrazin-2-yl)propanoate]: below 10 nM.
On the same count and under the same terms, for `CCOC(=O)[C@@H](Cn1cnc(C#N)c1)OC(=O)Nc1c2c(cc3c1CCC3)CCC2` [Compound 89, Ethyl (2R)-3-(4-cyano-1H-imidazol-1-yl)-2-{[(1,2,3,5,6,7-hexahydro-s-indacen-4-yl)carbamoyl]oxy}propanoate] the value was 100 to 1000 nM; for `CC(C)OC(=O)C(Cc1cnc(C#N)cn1)OC(=O)Nc1c2c(cc3c1CCC3)CCC2` (stereo not drawn) [Compound 119, Propan-2-yl 3-(5-cyanopyrazin-2-yl)-2-{[(1,2,3,5,6,7-hexahydro-s-indacen-4-yl)carbamoyl]oxy}propanoate], below 10 nM; for `CCOC(=O)C(Cn1cccn1)OC(=O)Nc1c(F)cc(F)cc1F` (stereo not drawn) [Compound 73, Ethyl 3-(1H-pyrazol-1-yl)-2-{[(2,4,6-trifluorophenyl)carbamoyl]oxy}propanoate], 100 to 1000 nM.
On the same count and under the same terms, for `CCOC(=O)C(Cn1cccn1)OC(=O)Nc1cccc(C(F)(F)F)c1Cl` (stereo not drawn) [Compound 70, Ethyl 2-({[2-chloro-3-(trifluoromethyl)phenyl]carbamoyl}oxy)-3-(1H-pyrazol-1-yl)propanoate] the value was 1000 to 10000 nM; for `CCOC(=O)C(Cn1cccn1)OC(=O)Nc1c(CC)cccc1CC` (stereo not drawn) [Compound 48, Ethyl 2-{[(2,6-diethylphenyl)carbamoyl]oxy}-3-(1H-pyrazol-1-yl)propanoate], 100 to 1000 nM.
In the case of `CCOC(=O)C(Cn1cccn1)OC(=O)Nc1c(F)ccc(Cl)c1F` (stereo not drawn) [Compound 75, Ethyl 2-{[(3-chloro-2,6-difluorophenyl)carbamoyl]oxy}-3-(1H-pyrazol-1-yl)propanoate], the IC50 is 100 to 1000 nM.
